Results from patent US9637491B2, “Pyrazolo[4,3-D]pyrimidines as kinase inhibitors” (Origenis GmbH, priority 2012, dated 2017).

Target: T1, SYK kinase (Homo sapiens, UniProt P43405)
T1 construct: purchased Invitrogen, Carlsbad
Experiment: SYK assay (OMNIA Kinase Assay, Invitrogen)
Assay type: biochemical
Conditions: SYK Activities; 1 mM ATP, 10 μM Omnia Peptide Substrate Tyr 7, 30° C.
In short: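 Continuous-read fluorescence kinase assay: SOX-labelled Tyr 7 peptide (10 μM) with 1 mM ATP and 0.2 mM DTT, 30° C, reaction started by adding SYK. Fluorescence (ex 360/em 485 nm) read every 30 s for 30 min. IC50 from sigmoidal fit of reaction velocity versus inhibitor concentration.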

Structure (SMILES)	IC50 [nM]
CS(=O)(=O)Nc1cccc(-c2nc(Nc3cnn(CCO)c3)c3[nH]ncc3n2)c1 [Example 262, N-(3-(7-((1-(2-hydroxyethyl)-1H-pyrazol-4-yl)amino)-1H-pyrazolo[4,3-d]pyrimidin-5-yl)phenyl)methanesulfonamide]	100 to 1000
CS(=O)(=O)Nc1cccc(-c2nc(Nc3cnn(C4CCOCC4)c3)c3[nH]ncc3n2)c1 [Example 263, N-(3-(7-((1-(tetrahydro-2H-pyran-4-yl)-1H-pyrazol-4-yl)amino)-1H-pyrazolo[4,3-d]pyrimidin-5-yl)phenyl)methanesulfonamide]	100 to 1000
CN1CCC(n2cc(Nc3nc(-c4cccc(NS(C)(=O)=O)c4)nc4cn[nH]c34)cn2)CC1 [Example 264, N-(3-(7-((1-(1-methylpiperidin-4-yl)-1H-pyrazol-4-yl)amino)-1H-pyrazolo[4,3-d]pyrimidin-5-yl)phenyl)methanesulfonamide]	10 to 100
COCCn1cc(Nc2nc(-c3cccc(NS(C)(=O)=O)c3)nc3cn[nH]c23)cn1 [Example 265, N-(3-(7-((1-(2-methoxyethyl)-1H-pyrazol-4-yl)amino)-1H-pyrazolo[4,3-d]pyrimidin-5-yl)phenyl)methanesulfonamide]	100 to 1000
CC(=O)N1CCC(n2cc(Nc3nc(-c4cccc(NS(C)(=O)=O)c4)nc4cn[nH]c34)cn2)CC1 [Example 266, N-(3-(7-((1-(1-acetylpiperidin-4-yl)-1H-pyrazol-4-yl)amino)-1H-pyrazolo[4,3-d]pyrimidin-5-yl)phenyl)methanesulfonamide]	100 to 1000
c1nn(C2CC2)cc1Nc1nc(C2CCC2)nc2cn[nH]c12 [Example 267, 5-cyclobutyl-N-(1-cyclopropyl-1H-pyrazol-4-yl)-1H-pyrazolo[4,3-d]pyrimidin-7-amine]	10 to 100
CC(C)Cn1cc(Nc2nc(C(C)(C)C)nc3cn[nH]c23)cn1 [Example 268, 5-(tert-butyl)-N-(1-isobutyl-1H-pyrazol-4-yl)-1H-pyrazolo[4,3-d]pyrimidin-7-amine]	100 to 1000
CC(C)n1cc(Nc2nc(C(C)(C)C)nc3cn[nH]c23)cn1 [Example 269, 5-(tert-butyl)-N-(1-isopropyl-1H-pyrazol-4-yl)-1H-pyrazolo[4,3-d]pyrimidin-7-amine]	10 to 100
COCCCn1cc(Nc2nc(C(C)(C)C)nc3cn[nH]c23)cn1 [Example 270, 5-(tert-butyl)-N-(1-(3-methoxypropyl)-1H-pyrazol-4-yl)-1H-pyrazolo[4,3-d]pyrimidin-7-amine]	100 to 1000
CC(C)(C)c1nc(Nc2cnn(C3CC3)c2)c2[nH]ncc2n1 [Example 273, 5-(tert-butyl)-N-(1-cyclopropyl-1H-pyrazol-4-yl)-1H-pyrazolo[4,3-d]pyrimidin-7-amine]	100 to 1000
c1coc(-c2nc(Nc3cnn(C4CC4)c3)c3[nH]ncc3n2)c1 [Example 278, N-(1-cyclopropyl-1H-pyrazol-4-yl)-5-(furan-2-yl)-1H-pyrazolo[4,3-d]pyrimidin-7-amine]	10 to 100
c1nn(C2CC2)cc1Nc1nc(C2CC2)nc2cn[nH]c12 [Example 282, 5-cyclopropyl-N-(1-cyclopropyl-1H-pyrazol-4-yl)-1H-pyrazolo[4,3-d]pyrimidin-7-amine]	10 to 100
COCC(C)(C)n1cc(Nc2nc(C3CC3)nc3cn[nH]c23)cn1 [Example 283, 5-cyclopropyl-N-(1-(1-methoxy-2-methylpropan-2-yl)-1H-pyrazol-4-yl)-1H-pyrazolo[4,3-d]pyrimidin-7-amine]	10 to 100
Cc1c(Nc2nc(C3CC3)nc3cn[nH]c23)cnn1C(C)C [Example 287, 5-cyclopropyl-N-(1-isopropyl-5-methyl-1H-pyrazol-4-yl)-1H-pyrazolo[4,3-d]pyrimidin-7-amine]	100 to 1000
COCC(C)(C)n1cc(Nc2nc(-c3ccoc3)nc3cn[nH]c23)cn1 [Example 290, 5-(furan-3-yl)-N-(1-(1-methoxy-2-methylpropan-2-yl)-1H-pyrazol-4-yl)-1H-pyrazolo[4,3-d]pyrimidin-7-amine]	100 to 1000
CC(C)(C)N1CCC(n2cc(Nc3nc(-c4ccoc4)nc4cn[nH]c34)cn2)CC1 [Example 291, N-(1-(1-(tert-butyl)piperidin-4-yl)-1H-pyrazol-4-yl)-5-(furan-3-yl)-1H-pyrazolo[4,3-d]pyrimidin-7-amine]	< 10
Cc1nn(C(C)C)cc1Nc1nc(-c2ccoc2)nc2cn[nH]c12 [Example 292, 5-(furan-3-yl)-N-(1-isopropyl-3-methyl-1H-pyrazol-4-yl)-1H-pyrazolo[4,3-d]pyrimidin-7-amine]	100 to 1000
Cc1nn(C2CCOCC2)cc1Nc1nc(-c2ccoc2)nc2cn[nH]c12 [Example 294, 5-(furan-3-yl)-N-(3-methyl-1-(tetrahydro-2H-pyran-4-yl)-1H-pyrazol-4-yl)-1H-pyrazolo[4,3-d]pyrimidin-7-amine]	100 to 1000
Cc1c(Nc2nc(-c3ccoc3)nc3cn[nH]c23)cnn1C1CCOCC1 [Example 295, 5-(furan-3-yl)-N-(5-methyl-1-(tetrahydro-2H-pyran-4-yl)-1H-pyrazol-4-yl)-1H-pyrazolo[4,3-d]pyrimidin-7-amine]	100 to 1000
O=c1cc(Nc2nc(C3CC3)nc3cn[nH]c23)ccn1C1CC1 [Example 296, 1-cyclopropyl-4-((5-cyclopropyl-1H-pyrazolo[4,3-d]pyrimidin-7-yl)amino)pyridin-2(1H)-one]	10 to 100
CC(C)n1ncc(Nc2nc(C3CC3)nc3cn[nH]c23)c1Cl [Example 297, N-(5-chloro-1-isopropyl-1H-pyrazol-4-yl)-5-cyclopropyl-1H-pyrazolo[4,3-d]pyrimidin-7-amine]	100 to 1000
CC(C)n1ncc(Nc2nc(C3CCC3)nc3cn[nH]c23)c1Cl [Example 312, N-(5-chloro-1-isopropyl-1H-pyrazol-4-yl)-5-cyclobutyl-1H-pyrazolo[4,3-d]pyrimidin-7-amine]	100 to 1000
COc1ccc(Nc2nc(-c3cccc(C(=O)Nc4ccc(-c5cnco5)cc4)c3)nc3cn[nH]c23)cc1OC [Example 319, 3-(7-((3,4-dimethoxyphenyl)amino)-1H-pyrazolo[4,3-d]pyrimidin-5-yl)-N-(4-(oxazol-5-yl)phenyl)benzamide]	100 to 1000
COc1ccc(Nc2nc(-c3cccc(C(=O)Nc4ccc(-c5ncco5)cc4)c3)nc3cn[nH]c23)cc1OC [Example 321, 3-(7-((3,4-dimethoxyphenyl)amino)-1H-pyrazolo[4,3-d]pyrimidin-5-yl)-N-(4-(oxazol-2-yl)phenyl)benzamide]	100 to 1000
Cc1c(Nc2nc(C3CCC3)nc3cn[nH]c23)cnn1C(C)C [Example 325, 5-cyclobutyl-N-(1-isopropyl-5-methyl-1H-pyrazol-4-yl)-1H-pyrazolo[4,3-d]pyrimidin-7-amine]	100 to 1000
CC(C)(C)N1CCC(n2cc(Nc3nc(C4CC4)nc4cn[nH]c34)cn2)CC1 [Example 328, N-(1-(1-(tert-butyl)piperidin-4-yl)-1H-pyrazol-4-yl)-5-cyclopropyl-1H-pyrazolo[4,3-d]pyrimidin-7-amine]	< 10
FCCn1cc(Nc2nc(-c3ccoc3)nc3cn[nH]c23)cn1 [Example 361, N-(1-(2-fluoroethyl)-1H-pyrazol-4-yl)-5-(furan-3-yl)-1H-pyrazolo[4,3-d]pyrimidin-7-amine]	10 to 100
FCCn1cc(Nc2nc(C3CC3)nc3cn[nH]c23)cn1 [Example 362, 5-cyclopropyl-N-(1-(2-fluoroethyl)-1H-pyrazol-4-yl)-1H-pyrazolo[4,3-d]pyrimidin-7-amine]	10 to 100
